Data: US5684018A, “Acyloxyisopropyl carbamates as prodrugs for amine drugs” (Merck & Co., Inc., priority 1994, dated 1997)

Legend:
[1] = Regeneration of the parent drug by rat plasma hydrolysis of the prodrug; assay type: in vitro ADME; details: 37° C., initial prodrug concentration 6.3×10^-5 M, n=2, HPLC
Protocol: The rate of hydrolysis of the acetoxyisopropyl carbamate prodrug of [3(R)-2-(piperidine-4-yl)ethyl]-2-piperidone-1-[(3R)-methyl-5-ketopentanoic acid]by plasma enzymes was studied by measuring the formation of the parent amine drug at 37° C. in rat plasma. The reaction was initiated by adding an aqueous solution of the carbamate prodrug to the reaction medium pre-equilibrated at 37° C. in a thermostated water bath. The initial concentration of the prodrug in rat plasma was 6.3×10^-5 M. Samples (100 μl) were withdrawn at intervals and mixed with saturated ammonium sulfate (200 μl), vortex mixed for 10 seconds and centrifuged for 5 minutes at 14,000 g to precipitate plasma proteins. The supernatant was injected directly and analyzed by HPLC on a 20 cm Brownlee Spheri-5 RP-18 column combined with a similar 3 cm guard column. The mobile phase used for the analysis was 0.01M K2 HPO4 buffer (adjusted to pH 6.5 with phosphoric acid) containing 3% acetonitrile at a flow rate of 1 mL/min. The retention time under these conditions for the amine drug was approximately 15 minutes. The concentration of the compounds was measured at 210 nm using a variable wavelength. UV detector.

[2] = oral administration to rats; cited from earlier work

| Structure (SMILES) | half-life at 63 µM [1] | regeneration of the parent drug [2] |
| --- | --- | --- |
| CC(=O)OC(C)(C)OC(=O)N1CCC(CC[C@@H]2CCCN(CC(=O)N[C@H](C)CC(=O)O)C2=O)CC1 [acetoxyisopropyl carbamate prodrug, {3(R)-2-{1-[2(Acetoxy)isopropoxycarbonylpiperidine-4yl]-ethyl}piperidone-1}-acetyl-3(R)-methyl-β-alanine] | 32 ± 6 min |  |
| CCn1cc(C(=O)O)c(=O)c2cc(F)c(N3CCN(Cc4oc(=O)oc4C)CC3)cc21 [alkylated nofloxacin] |  | regenerated the parent drag |
